Patent US4129591A, “Ureida-phenylenebis(substituted imino)multianionic substituted dinaphthalene sulfonic acids and salts” (American Cyanamid Company, priority 1976, dated 1978)
Counter-ions that a name gives are not always drawn.

How the values were obtained:
[1] = system: shunt pathway activated by cobra venom factor; assay: Test, Code 036 (C-Shunt inhibitor), lysis of human erythrocytes in autologous serum; assay type: cell-based
Text: (§1) An active inhibitor protects C2 from C1 and C4; (ii) Test, Code 035 (C3-C9 inhibitor) -- This test determines the ability of the late components of human complement (C3-C9) to lyse EAC 142 in the presence of appropriate dilutions of the test compound. An active inhibitor protects EAC 142 from lysis by human C3-C9; (iii) Test, Code 036 (C-Shunt inhibitor) -- In this test human erythrocytes rendered fragile are lysed in autologous serum via the shunt pathway activated by cobra venom factor in the presence of appropriate dilutions of the test compound. Inhibition of the shunt pathway results in failure of lysis; (iv) Forssman Vasculitis Test -- Here, the well known complement dependent lesion, Forssman vasculitis, is produced in guinea pigs by intradermal injection of rabbit anti-Forssman antiserum. The lesion is measured in terms of diameter, edema and hemorrhage and the extent to which a combined index of these is inhibited by prior intraperitoneal injection of the test compound at 200 mg/kg is then reported, unless otherwise stated; (v) Forssman Shock Test -- Lethal shock is produced in guinea pigs by an i.v. injection of anti-Forssman antiserum and the harmonic mean death time of treated guinea pigs is compared with that of simultaneous controls; (vi) Complement Level Reduction Test -- In this test, the above dosed guinea pigs, or others, are bled for serum and the complement level is determined in undiluted serum by the capillary tube method of U.S. Pat. No. 3,876,376 and compared to undosed control guinea pigs; and (vii) Cap 50 Test -- Here, appropriate amounts of the test compound are added to a pool of guinea pig serum in vitro, after which the undiluted serum capillary tube assay referred to above is run. The concentration of compound inhibiting 50% is reported.

whole complement = assay: Complement level reduction in dosed guinea pigs (capillary tube assay); assay type: in vivo; conditions: guinea pig, 200 mg/kg
[2] = system: late components of human complement (C3-C9); assay: Test, Code 035 (C3-C9 inhibitor), lysis of EAC 142; assay type: cell-based; conditions: human C3-C9, EAC 142, in vitro
Text: as §1

[3] = system: hereditary angioneurotic edema; conditions: New England Journal of Medicine, 286, 808-812 (1972); cited from earlier work
activated human C1 = target: T1, activated human C1 (Homo sapiens, UniProt P09871); assay: Test, Code 026 (C1 inhibitor); assay type: biochemical; conditions: human C1, in vitro
T1 construct: fluid-phase human C2 cleavage in presence of C4
Text: An active inhibitor protects C2 from C1 and C4; (ii) Test, Code 035 (C3-C9 inhibitor) -- This test determines the ability of the late components of human complement (C3-C9) to lyse EAC 142 in the presence of appropriate dilutions of the test compound. An active inhibitor protects EAC 142 from lysis by human C3-C9; (iii) Test, Code 036 (C-Shunt inhibitor) -- In this test human erythrocytes rendered fragile are lysed in autologous serum via the shunt pathway activated by cobra venom factor in the presence of appropriate dilutions of the test compound. Inhibition of the shunt pathway results in failure of lysis; (iv) Forssman Vasculitis Test -- Here, the well known complement dependent lesion, Forssman vasculitis, is produced in guinea pigs by intradermal injection of rabbit anti-Forssman antiserum. […]

complement system = conditions: literature; cited from earlier work

T1 sequence (P09871 16-688): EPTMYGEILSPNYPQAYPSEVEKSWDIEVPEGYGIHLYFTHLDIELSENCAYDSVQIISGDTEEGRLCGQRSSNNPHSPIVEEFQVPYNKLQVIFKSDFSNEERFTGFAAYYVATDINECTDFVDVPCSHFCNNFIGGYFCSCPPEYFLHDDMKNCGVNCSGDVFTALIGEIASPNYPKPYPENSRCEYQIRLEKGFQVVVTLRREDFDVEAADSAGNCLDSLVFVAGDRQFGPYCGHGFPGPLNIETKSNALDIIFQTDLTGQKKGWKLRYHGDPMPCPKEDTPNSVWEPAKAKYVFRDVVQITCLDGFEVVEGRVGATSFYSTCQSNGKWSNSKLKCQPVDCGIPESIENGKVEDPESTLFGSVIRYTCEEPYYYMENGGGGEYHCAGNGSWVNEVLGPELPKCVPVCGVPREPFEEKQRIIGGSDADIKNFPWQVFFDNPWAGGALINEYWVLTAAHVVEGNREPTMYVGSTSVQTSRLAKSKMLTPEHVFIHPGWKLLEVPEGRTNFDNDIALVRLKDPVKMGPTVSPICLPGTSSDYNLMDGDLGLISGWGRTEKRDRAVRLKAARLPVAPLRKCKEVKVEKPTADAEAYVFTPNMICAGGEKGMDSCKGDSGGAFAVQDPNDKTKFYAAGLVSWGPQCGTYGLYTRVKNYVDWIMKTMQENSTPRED
T1 sequence (P00736 18-705 partner): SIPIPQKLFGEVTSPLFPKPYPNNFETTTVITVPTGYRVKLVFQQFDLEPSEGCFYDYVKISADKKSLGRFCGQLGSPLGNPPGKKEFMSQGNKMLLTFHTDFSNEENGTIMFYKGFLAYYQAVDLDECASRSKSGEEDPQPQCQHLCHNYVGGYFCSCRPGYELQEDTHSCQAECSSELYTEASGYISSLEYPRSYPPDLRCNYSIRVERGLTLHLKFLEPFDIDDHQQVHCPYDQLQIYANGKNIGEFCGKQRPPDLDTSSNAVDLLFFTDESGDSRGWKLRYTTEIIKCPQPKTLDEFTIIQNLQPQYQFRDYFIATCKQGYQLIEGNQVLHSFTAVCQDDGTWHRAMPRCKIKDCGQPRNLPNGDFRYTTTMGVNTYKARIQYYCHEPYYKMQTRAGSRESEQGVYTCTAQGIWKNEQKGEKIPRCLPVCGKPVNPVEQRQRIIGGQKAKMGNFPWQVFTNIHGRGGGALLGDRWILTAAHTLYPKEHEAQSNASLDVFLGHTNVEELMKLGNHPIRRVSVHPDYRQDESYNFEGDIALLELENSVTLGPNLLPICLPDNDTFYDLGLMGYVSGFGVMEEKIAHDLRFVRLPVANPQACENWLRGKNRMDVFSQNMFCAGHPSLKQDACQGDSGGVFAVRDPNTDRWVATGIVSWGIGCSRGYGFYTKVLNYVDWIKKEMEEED
T1 sequence (P02745 23-245 partner): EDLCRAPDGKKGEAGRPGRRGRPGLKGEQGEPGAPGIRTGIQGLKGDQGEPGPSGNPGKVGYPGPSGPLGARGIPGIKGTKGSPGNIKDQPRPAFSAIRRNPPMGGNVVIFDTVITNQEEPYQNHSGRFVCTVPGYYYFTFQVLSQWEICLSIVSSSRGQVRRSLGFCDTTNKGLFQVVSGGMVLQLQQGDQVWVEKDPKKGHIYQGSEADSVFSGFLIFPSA
T1 sequence (P02746 28-253 partner): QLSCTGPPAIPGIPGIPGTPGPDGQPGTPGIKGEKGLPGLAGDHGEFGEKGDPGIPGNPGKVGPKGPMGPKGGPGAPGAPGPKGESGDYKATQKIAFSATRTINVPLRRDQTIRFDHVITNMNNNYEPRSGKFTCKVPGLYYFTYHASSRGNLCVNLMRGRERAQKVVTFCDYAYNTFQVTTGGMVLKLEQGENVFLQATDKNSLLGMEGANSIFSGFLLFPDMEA
T1 sequence (P02747 29-245 partner): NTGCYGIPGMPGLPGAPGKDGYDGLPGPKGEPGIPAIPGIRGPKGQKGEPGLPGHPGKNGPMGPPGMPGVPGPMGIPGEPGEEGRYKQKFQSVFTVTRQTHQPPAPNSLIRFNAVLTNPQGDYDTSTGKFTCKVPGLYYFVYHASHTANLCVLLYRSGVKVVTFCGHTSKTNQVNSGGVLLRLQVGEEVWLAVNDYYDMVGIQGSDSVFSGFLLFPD

Molecule	Shunt Inhibition 036* Wells [1]	% change in complement level (whole complement; i.p., time 30)	% change in complement level (whole complement; i.p., time 60)	use in treatment of hereditary angioneurotic edema [3]	anticomplementary effect / complement inhibition (complement system)	other results
O=C(Nc1cc(C(=O)Nc2cc(S(=O)(=O)O)cc3cc(S(=O)(=O)O)cc(O)c23)cc(C(=O)Nc2cc(S(=O)(=O)O)cc3cc(S(=O)(=O)O)cc(O)c23)c1)Nc1cc(C(=O)Nc2cc(S(=O)(=O)O)cc3cc(S(=O)(=O)O)cc(O)c23)cc(C(=O)Nc2cc(S(=O)(=O)O)cc3cc(S(=O)(=O)O)cc(O)c23)c1 [4,4',4",4'"-[Carbonylbis[imino-5,1,3-benzenetriylbis(carbonylimino)]]tetrakis[5-hydroxy-2,7-naphthalenedisulfonic acid] octasodium salt]	+1 Wells	-69%	-92%			% change in complement level (whole complement; i.p., time 120): -98%
O=C(Nc1cc(C(=O)Nc2cc(S(=O)(=O)O)cc3cc(S(=O)(=O)O)ccc23)cc(C(=O)Nc2cc(S(=O)(=O)O)cc3cc(S(=O)(=O)O)ccc23)c1)Nc1cc(C(=O)Nc2cc(S(=O)(=O)O)cc3cc(S(=O)(=O)O)ccc23)cc(C(=O)Nc2cc(S(=O)(=O)O)cc3cc(S(=O)(=O)O)ccc23)c1 [4,4',4",4'"-{Carbonylbis[imino-5,1,3-benzenetriylbis(carbonylimino)]}tetrakis[2,7-naphthalenedisulfonic acid] octasodium salt]	+3 Wells					C-Late 035* Wells [2]: +1 Wells; C-Late 035* Wells (class symbol N) [2]: N (N means inactive, O Wells)
NCCCCCC(=O)O [6-aminohexanoic acid]				used with success		
O=C(Nc1cc(C(=O)Nc2ccc(S(=O)(=O)O)c3cc(S(=O)(=O)O)cc(S(=O)(=O)O)c23)cc(C(=O)Nc2ccc(S(=O)(=O)O)c3cc(S(=O)(=O)O)cc(S(=O)(=O)O)c23)c1)Nc1cc(C(=O)Nc2ccc(S(=O)(=O)O)c3cc(S(=O)(=O)O)cc(S(=O)(=O)O)c23)cc(C(=O)Nc2ccc(S(=O)(=O)O)c3cc(S(=O)(=O)O)cc(S(=O)(=O)O)c23)c1 [8,8',8",8"'-[Carbonylbis[imino-5,1,3-benzenetriylbis(carbonylimino)]]tetrakis[1-3,5-naphthalenesulfonic acid] dodecasodium salt]		-98%	-98%			
O=C(Nc1cc(C(=O)Nc2cc(S(=O)(=O)O)cc3cc(S(=O)(=O)O)cc(S(=O)(=O)O)c23)cc(C(=O)Nc2cc(S(=O)(=O)O)cc3cc(S(=O)(=O)O)cc(S(=O)(=O)O)c23)c1)Nc1cc(C(=O)Nc2cc(S(=O)(=O)O)cc3cc(S(=O)(=O)O)cc(S(=O)(=O)O)c23)cc(C(=O)Nc2cc(S(=O)(=O)O)cc3cc(S(=O)(=O)O)cc(S(=O)(=O)O)c23)c1 [8,8',8",8'"-[Carbonylbis[imino-5,1,3-benzenetriylbis(carbonylimino)]]tetrakis[1,3,6-naphthalenetrisulfonic acid]dodecasodium salt]	+5 Wells	-88%	-85%			C1 026* Wells (activated human C1): +9 Wells; C-Late 035* Wells [2]: +3 Wells; % change in complement level (whole complement; i.p., time 120): -92%; % change in complement level (whole complement; i.v., time 2): -98%; % change in complement level (whole complement; i.v., time 30): -97%; % change in complement level (whole complement; i.v., time 120): -89%
Cc1ccc(C(=O)Nc2ccc(S(=O)(=O)O)c3cc(S(=O)(=O)O)cc(S(=O)(=O)O)c23)cc1NC(=O)c1cccc(NC(=O)Nc2cccc(C(=O)Nc3cc(C(=O)Nc4ccc(S(=O)(=O)O)c5cc(S(=O)(=O)O)cc(S(=O)(=O)O)c45)ccc3C)c2)c1 [Suramin]				used with success	competitive inhibitor of the complement system	
Nc1ccc2cc(S(=O)(=O)O)cc(O)c2c1N=Nc1ccc(NC(=O)Nc2ccc(N=Nc3c(N)ccc4cc(S(=O)(=O)O)cc(O)c34)c(S(=O)(=O)O)c2)cc1S(=O)(=O)O [chlorazol fast pink, 3,3-(carbonyldiimino)bis[6-(2-amino-8-hydroxy-6-sulfo-1-naphthylazo)benzenesulfonic acid], tetrasodium salt]					anticomplementary effect	
NC[C@H]1CC[C@H](C(=O)O)CC1 [trans-4-(aminomethyl)-cyclohexanecarboxylic acid]				used with success		
heparin					anticomplementary effect	
